Data on four compounds can be found in ChEMBL document CHEMBL1201862, “PubChem BioAssay data set” (2004).

What all share (test): inhibition of tumour cell growth, NCI panel, 48 h
The test system of assay [1] is UO-31.
Assay [2] relates to HL-60.
Assay [3] relates to U-251.
Assay [4] relates to HOP-62.
Assay [5] concerns OVCAR-5.
The subject of assay [6] is K562.
Assay [7] deals with A498.
Assay [8] deals with HOP-92.
Assay [9] has as its system MOLT-4.
Assay [10] has as its system SF-539.
Assay [11] relates to NCI-H226.
Assay [12] has as its system SNB-19.
In assay [13] the test system is MDA-N.
The test system of assay [14] is PC-3.
Assay [15] deals with SK-MEL-28.
In assay [16] the test system is OVCAR-8.
In assay [17] the test system is UACC-257.
Assay [18] has as its system Hs-578T.
Assay [19] concerns MDA-MB-435.

The structures appear in SMILES notation.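 96-well plates; 48 h exposure; 5 concentrations. Endpoints by linear interpolation between flanking doses. Not reached: highest tested concentration assigned. GI50: concentration for 50% inhibition of growth.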 The source made the active and inactive calls. Rule as the data show it: active = GI50 up to about 1.1 µM and inactive = higher.

For the compound `CN1CCN(c2ccc(-n3cc(C(=O)O)c(=O)c4cc(F)c(N5CCN(C)CC5)cc43)nc2)CC1`, the GI50 in [1] is > 100 µM (inactive); in [2], > 100 µM (inactive); in assay [3], > 100 µM (inactive); in assay [4] it was > 100 µM (inactive); in assay [5], > 100 µM (inactive); in assay [6] it was 62.8 µM (inactive). The GI50 in assay [7], in assay [8], in [9], in assay [10], in assay [11] and in assay [12] was > 100 µM (inactive) throughout. The GI50 in [13] is > 100 µM (inactive); in assay [14] it was > 100 µM (inactive); in assay [15], > 100 µM (inactive); in assay [16] it was 85.1 µM (inactive); in assay [17] it was > 100 µM (inactive); in assay [18], > 100 µM (inactive). The GI50 in assay [19] is > 100 µM (inactive).
Take `CC(C)(C)N1CSC(=S)N(Cc2ccco2)C1`: the GI50 in assay [1] was 2.38 µM (inactive); in [2], 1.53 µM (inactive); in assay [3], 3.72 µM (inactive); in assay [4] it was 4.8 µM (inactive); in assay [5], 3.1 µM (inactive); in [6], 1.85 µM (inactive). Further, the GI50 in assay [7] is 13.3 µM (inactive); in [8], 1.55 µM (inactive); in assay [9] it was 1.45 µM (inactive); in assay [10], 0.708 µM (active); in assay [11], 20.3 µM (inactive); in assay [12], 3.91 µM (inactive). Besides, the GI50 was 2.85 µM (inactive) in assay [13]; 3.35 µM (inactive) in assay [14]; 2.4 µM (inactive) in assay [15]; 2.12 µM (inactive) in assay [16]; 10.3 µM (inactive) in assay [17]; 4.78 µM (inactive) in assay [18]. Moreover, the GI50 in assay [19] was 1.76 µM (inactive).
In the case of `O=C1/C(=C(/Br)I)c2ccccc2-c2ccccc21`, the GI50 in assay [1] was 2.4 µM (inactive); in assay [2], 0.248 µM (active); in assay [3], 12.6 µM (inactive); in [4], 17.1 µM (inactive); in [5], 11.9 µM (inactive); in assay [6] it was 2.36 µM (inactive). In addition, the GI50 is 16.4 µM (inactive) in assay [7]; 2.79 µM (inactive) in [8]; 2.21 µM (inactive) in assay [9]; 14.6 µM (inactive) in assay [10]; 18.8 µM (inactive) in [11]; 13.9 µM (inactive) in assay [12]. Also, the GI50 in assay [13] is 2.95 µM (inactive); in assay [14], 8.34 µM (inactive); in [15], 21.5 µM (inactive); in assay [16], 16.9 µM (inactive); in assay [17], 6.01 µM (inactive); in assay [18] it was 28.6 µM (inactive). Besides, the GI50 in assay [19] was 8.51 µM (inactive).
As for `Clc1ncnc2c1nc(C#Cc1ccccc1)n2Cc1ccccc1`, the GI50 in [1] is 2.14 µM (inactive); in assay [2], 7.83 µM (inactive); in [3], 17.6 µM (inactive); in assay [4] it was 24.7 µM (inactive); in [5], > 100 µM (inactive); in [6], 3.67 µM (inactive). Moreover, the GI50 in [7] was > 100 µM (inactive); in [8], 27.1 µM (inactive); in assay [9], 3.34 µM (inactive); in assay [10] it was 29.9 µM (inactive); in assay [11], 45.3 µM (inactive); in [12] it was 29.9 µM (inactive). Also, the GI50 in assay [13] is 5.61 µM (inactive); in assay [14], 40.6 µM (inactive); in assay [15] it was 18.8 µM (inactive); in assay [16], 12.7 µM (inactive); in assay [17], 25.8 µM (inactive); in assay [18], 53 µM (inactive). Besides, the GI50 in assay [19] is 11.9 µM (inactive).
